# Assay results as given in patent US9545105B2, “1-(heterocyclic carbonyl) piperidines” (BAYER INTELLECTUAL PROPERTY GMBH, priority 2010, dated 2017).
# Assays:
# Alternaria solani = test: In vivo preventive test on Alternaria solani (tomato); conditions: 500 ppm of active ingredient, evaluated 7 days after inoculation
# Outline: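 Young tomato plants were sprayed preventively with compound in DMF/alkylarylpolyglycolether diluted in water, then inoculated one day later with A. solani spores. Incubation was 1 day at about 22 °C and 100% RH, then about 20 °C and 96% RH. Efficacy was scored 7 days after inoculation (0% = untreated control, 100% = no disease).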
# Uromyces appendiculatus = test: In vivo preventive test on Uromyces appendiculatus (bean rust); conditions: 100 ppm of active ingredient, evaluated 10 days after inoculation
# Experimental: Solvent: 24.5 parts by weight of acetone • 24.5 parts by weight of N,N-dimethylacetamide Emulsifier: 1 part by weight of alkylaryl polyglycol ether To produce a suitable preparation of active compound, 1 part by weight of active compound is mixed with the stated amounts of solvent and emulsifier, and the concentrate is diluted with water to the desired concentration. To test for preventive activity, young plants are sprayed with the preparation of active compound at the stated rate of application. After the spray coating has dried on, the plants are inoculated with an aqueous spore suspension of the causal agent of bean rust (Uromyces appendiculatus) and then remain for 1 day in an incubation cabinet at approximately 20° C. and a relative atmospheric humidity of 100%. The plants are then placed in a greenhouse at approximately 21° C. and a relative atmospheric humidity of approximately 90%. The test is evaluated 10 days after the inoculation. 0% means an efficacy which corresponds to that of the untreated control, while an efficacy of 100% means that no disease is observed.
# Leptosphaeria nodorum = test: In vivo preventive test on Leptosphaeria nodorum (wheat); conditions: 500 ppm of active ingredient, evaluated 8 days after inoculation
# Experimental: Solvent: 49 parts by weight of N,N-dimethylacetamide Emulsifier: 1 part by weight of alkylaryl polyglycol ether To produce a suitable preparation of active compound, 1 part by weight of active compound or active compound combination is mixed with the stated amounts of solvent and emulsifier, and the concentrate is diluted with water to the desired concentration. To test for preventive activity, young plants are sprayed with the preparation of active compound or active compound combination at the stated rate of application. After the spray coating has been dried, the plants are sprayed with a spore suspension of Leptosphaeria nodorum. The plants remain for 48 hours in an incubation cabinet at approximately 20° C. and a relative atmospheric humidity of approximately 100%. The plants are placed in the greenhouse at a temperature of approximately 22° C. and a relative atmospheric humidity of approximately 80%. The test is evaluated 8 days after the inoculation. 0% means an efficacy which corresponds to that of the untreated control, while an efficacy of 100% means that no disease is observed.
# Sphaerotheca fuliginea = test: In vivo preventive test on Sphaerotheca fuliginea (cucumber); conditions: 500 ppm of active ingredient, evaluated 7 days after inoculation
# Outline: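 Active compound in DMF with alkylarylpolyglycolether emulsifier, diluted in water and sprayed on young cucumber plants at the stated rate. One day later, plants inoculated with S. fuliginea spore suspension and kept at about 23 °C, 70% RH; efficacy scored 7 days post-inoculation, 0% = untreated, 100% = no disease.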
# Phakopsora pachyrhizi = test: In vivo protective test on Phakopsora pachyrhizi (soybeans); conditions: 250 ppm of active ingredient, evaluated 11 days after inoculation
Compound,Efficacy (Alternaria solani) [%],Efficacy (Uromyces appendiculatus) [%],Efficacy (Leptosphaeria nodorum) [%],Efficacy (Sphaerotheca fuliginea) [%],Efficacy (Phakopsora pachyrhizi) [%]
Cc1cc(C)cc(C2CCCCN2C(=O)c2c(C)nn(C)c2F)c1 (centres unmarked) [Example 10],90,100,71,95,98
CCc1nn(C)c(F)c1C(=O)N1CCCCC1c1cc(C)cc(C)c1 (centres unmarked) [Example 11],100,98,–,95,96
CCc1nn(C)c(F)c1C(=O)N1CCCCC1c1ccc(Cl)cc1 (centres unmarked) [Example 54],95,96,100,–,–
CCC(c1ccccc1)C1CCCCN1C(=O)c1c(C(F)F)nn(C)c1F (centres unmarked) [Example 136],100,78,100,98,–
CCC(c1ccccc1)C1CCCCN1C(=S)c1c(C(F)F)nn(C)c1F (centres unmarked) [Example 140],100,94,93,100,–
